Our source for the inhibition, Ki and EC50 values is ChEMBL document CHEMBL1155826, “Refinement of histamine H3 ligands pharmacophore model leads to a new class of potent and selective naphthalene inverse agonists” (Bioorg Med Chem Lett, 2008).

The target in assay [1] is T1, Histamine H3 receptor (Homo sapiens, UniProt Q9Y5N1). The experiment in a line: Displacement of [3H]RAMH from human histamine H3 receptor expressed in CHO cells at 3 uM. Type of assay: cell-based.
In assay [2] the target is T1, Histamine H3 receptor. The experiment in a line: Displacement of [3H]RAMH from human histamine H3 receptor expressed in CHO cells. Type of assay: cell-based. On the technique in general: Loss of bound radioactivity is the signal in a displacement assay; it reports binding, not function.
Assay [3] addresses T1, Histamine H3 receptor. The experiment in a line: Inverse agonist activity at human histamine H3 receptor expressed in CHO cells by GTPgammaS assay. Type of assay: functional, cell-based.
Assay [4] concerns the target Histamine H2 receptor (Homo sapiens) (UniProt P25021). The experiment in a line: Inhibition of histamine H2 receptor at 3 uM.
Assay [5] has as its target Histamine H1 receptor (Homo sapiens) (UniProt P35367). The assay is described as follows: Inhibition of histamine H1 receptor at 3 uM.
Assay [6] has as its target Histamine H4 receptor (Homo sapiens) (UniProt Q9H3N8). The assay is described as follows: Inhibition of histamine H4 receptor at 3 uM.

T1 sequence (Q9Y5N1 whole entry): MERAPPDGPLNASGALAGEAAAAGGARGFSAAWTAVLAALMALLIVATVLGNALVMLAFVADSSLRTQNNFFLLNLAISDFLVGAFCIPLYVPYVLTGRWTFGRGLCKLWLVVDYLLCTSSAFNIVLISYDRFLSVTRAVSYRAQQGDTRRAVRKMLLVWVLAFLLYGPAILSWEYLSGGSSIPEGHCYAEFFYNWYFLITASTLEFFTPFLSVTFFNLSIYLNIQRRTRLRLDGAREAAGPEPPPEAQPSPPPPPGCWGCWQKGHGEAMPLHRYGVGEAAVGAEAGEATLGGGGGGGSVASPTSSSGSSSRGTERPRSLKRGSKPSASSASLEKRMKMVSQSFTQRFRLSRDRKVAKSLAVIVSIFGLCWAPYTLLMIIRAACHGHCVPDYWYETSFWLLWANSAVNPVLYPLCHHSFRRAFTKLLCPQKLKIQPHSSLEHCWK
Chain of Histamine H1 receptor (Homo sapiens) (P35367 whole entry): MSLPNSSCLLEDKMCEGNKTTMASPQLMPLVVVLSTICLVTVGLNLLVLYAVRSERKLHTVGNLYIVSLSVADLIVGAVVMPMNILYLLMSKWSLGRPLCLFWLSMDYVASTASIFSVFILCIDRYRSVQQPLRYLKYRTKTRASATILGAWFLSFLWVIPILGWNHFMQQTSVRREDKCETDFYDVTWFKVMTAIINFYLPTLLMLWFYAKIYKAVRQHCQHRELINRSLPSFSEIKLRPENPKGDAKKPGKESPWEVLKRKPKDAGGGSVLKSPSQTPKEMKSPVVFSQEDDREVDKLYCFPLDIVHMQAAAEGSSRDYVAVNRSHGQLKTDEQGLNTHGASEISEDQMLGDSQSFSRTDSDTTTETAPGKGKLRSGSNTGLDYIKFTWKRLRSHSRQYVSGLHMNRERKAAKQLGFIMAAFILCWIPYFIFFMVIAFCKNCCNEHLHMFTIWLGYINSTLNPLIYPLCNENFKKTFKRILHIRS
Chain of Histamine H2 receptor (Homo sapiens) (P25021 whole entry): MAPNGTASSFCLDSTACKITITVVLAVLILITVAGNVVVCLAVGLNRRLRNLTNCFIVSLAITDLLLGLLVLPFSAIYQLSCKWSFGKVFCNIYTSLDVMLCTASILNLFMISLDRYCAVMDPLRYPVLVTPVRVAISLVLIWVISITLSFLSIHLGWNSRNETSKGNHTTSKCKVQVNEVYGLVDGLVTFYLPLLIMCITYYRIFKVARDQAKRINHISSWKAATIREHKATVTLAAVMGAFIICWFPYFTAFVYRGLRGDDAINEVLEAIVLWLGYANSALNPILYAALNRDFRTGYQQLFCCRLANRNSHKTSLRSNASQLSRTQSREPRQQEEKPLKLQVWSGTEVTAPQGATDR
Chain of Histamine H4 receptor (Homo sapiens) (Q9H3N8 whole entry): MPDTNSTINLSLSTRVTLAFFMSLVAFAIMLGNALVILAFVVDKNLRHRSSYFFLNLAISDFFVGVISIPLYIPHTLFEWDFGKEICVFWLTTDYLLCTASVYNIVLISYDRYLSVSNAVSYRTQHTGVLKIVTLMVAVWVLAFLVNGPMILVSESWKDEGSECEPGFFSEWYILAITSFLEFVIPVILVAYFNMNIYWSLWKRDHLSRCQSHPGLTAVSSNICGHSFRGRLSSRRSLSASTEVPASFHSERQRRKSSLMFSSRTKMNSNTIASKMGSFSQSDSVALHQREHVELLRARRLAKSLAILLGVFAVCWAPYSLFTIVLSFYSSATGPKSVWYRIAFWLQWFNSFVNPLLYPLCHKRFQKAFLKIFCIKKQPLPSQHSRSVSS

Turning to `CC(C)N1CCC(Oc2ccc3c(C(=O)N4CCCC4)cccc3c2)CC1`, the inhibition – broadly, the percentage by which the read-out fell short of the control – on Histamine H3 receptor [1] was determined as 53%.

In the case of `CC(C)N1CCC(Nc2ccc3cc(C(=O)N4CCOCC4)ccc3c2)CC1`, the inhibition on Histamine H3 receptor [1] is 61%.

`CC(C)N1CCC(Nc2ccc3cc(C(=O)NC4CCCCC4)ccc3c2)CC1`: the inhibition at Histamine H3 receptor [1] turned out to be 57%.

For `C[C@H]1CC[C@H](C)N1CCCOc1ccc(-c2ccc(C(=O)N3CCOCC3)cc2)cc1` (single isomer, unassigned) [A-349,821], the Ki – broadly, the dissociation constant of the complex between target and ligand, obtained from inhibition or displacement – on Histamine H3 receptor [2] was determined as 12 nM.

Regarding `CC(C)N1CCC(Oc2ccc3cc(C(=O)NC4CCCCC4)ccc3c2)CC1`, the EC50 (usually the concentration needed to bring the measured effect to its halfway point) at Histamine H3 receptor [3] was determined as 21 nM. The inhibition in assay [4], in assay [5] and in assay [6] was less than 25% throughout. Moreover, the affinity at Histamine H3 receptor [2] corresponds to a Ki of 87 nM.

`O=C(c1ccc2cc(OCCCN3CCCCC3)ccc2c1)N1CCCC1` registered a Ki at Histamine H3 receptor [2] of 4 nM.

`CC(C)N1CCC(Nc2ccc3cc(C(=O)N4CCCC4)ccc3c2)CC1`: the inhibition on Histamine H3 receptor [1] was determined as 45%.

`O=C(c1cccc2cc(OCCCN3CCCCC3)ccc12)N1CCCC1` displayed an inhibition on Histamine H3 receptor [1] of 58%.

`c1ccc2c(Nc3ccc(OCCCN4CCCCC4)cc3)ccnc2c1` yielded a Ki on Histamine H3 receptor [2] of 0.5 nM.

`CC(C)N1CCC(Oc2ccc3c(C(=O)NC4CCCCC4)cccc3c2)CC1` returned an inhibition on Histamine H3 receptor [1] of 52%.

Compound `CC(C)N1CCC(Oc2ccc3cc(C(=O)N4CCCC4)ccc3c2)CC1` gave a Ki on Histamine H3 receptor [2] of 57 nM.
